Reference: patent publication US8017350B2, “Glimepiride- and insulin-induced glycosylphosphatidylinositol-specific phospholipase C regulation” (Sanofi-Aventis Deutschland GmbH, priority 2004, dated 2011)

Key:
Assay type in all cases: biochemical
Conditions in all cases: 50 μM
cabbage PLD = test: PLD assay ([14C]phosphatidylcholine)
Method: Hormone-sensitive lipase (HSL) and lipoprotein lipase (LPL) were measured using a radiolabeled triolein droplet emulsion as described in “Vertesy et al., (2002) Journal Antibiotics 55:480-494”. Pancreatic lipase (PL) was determined by incubation of 0.25 mmol tributyrin in 2 ml of 5 mM Tris/HCl (pH 6.5), 6 mM sodium taurodeoxycholate, 150 mM NaCl, 1 mM CaCl2 with porcine PL and colipase in the same buffer using a recording pH stat (stirring at 1000 rpm at 25° C.) with the pH adjusted to 6.5. PC-PLC was assayed by incubation of 0.2 ml of 10 mM dipalmitoyllecithin, 0.1 ml of 10 mM SDC and 0.1 ml of 0.03 M CaCl2 with bacterial PC-PLC (in 50 mM Tris/HCl, pH 7.5, 0.1% BSA) for 10 min at 37° C. The reaction was terminated by addition of 0.1 ml of 50% TCA and subsequently of 2.5 ml of […]. After centrifugation (1500×g, 15 min), 0.2-ml portions of the upper methanol/water phase (˜1.33 ml) were removed, supplemented with 0.5 ml of 60% HClO4, then heated at 170° C. for 1 h and finally analyzed for inorganic phosphate. Mammalian PI-PLC was measured by incubation of 0.1 ml of 10 mM PI, 0.1 ml of 0.8% sodium deoxycholate, 0.1% BSA, 0.2 ml of 100 mM sodium borate (pH 7.5) and rat liver PI-PLC for 20 min at 37° C. The reaction was terminated and further processed as described for the PC-PLC. […] Radioactive phosphatidic acid was detected by phosphorimaging. […]

[1] = biological target: phospholipase A2 (honey bee venom) (Apis mellifera, UniProt P00630)
phospholipase A2 (honey bee venom), sequence (P00630 34-167 limits assumed): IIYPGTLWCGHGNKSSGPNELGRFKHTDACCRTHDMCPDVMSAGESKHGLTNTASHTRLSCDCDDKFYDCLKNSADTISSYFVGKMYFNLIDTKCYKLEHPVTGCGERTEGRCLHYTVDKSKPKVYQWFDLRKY

bovine AChE = biological target: T1, bovine AChE (Bos taurus, UniProt P23795); test: AChE activity
T1 construct: solubilized and partially purified bovine erythrocyte AChE; from tissue; host or cells: bovine erythrocytes
T1 sequence (P23795 31-614 isoform P23795-2 limits assumed): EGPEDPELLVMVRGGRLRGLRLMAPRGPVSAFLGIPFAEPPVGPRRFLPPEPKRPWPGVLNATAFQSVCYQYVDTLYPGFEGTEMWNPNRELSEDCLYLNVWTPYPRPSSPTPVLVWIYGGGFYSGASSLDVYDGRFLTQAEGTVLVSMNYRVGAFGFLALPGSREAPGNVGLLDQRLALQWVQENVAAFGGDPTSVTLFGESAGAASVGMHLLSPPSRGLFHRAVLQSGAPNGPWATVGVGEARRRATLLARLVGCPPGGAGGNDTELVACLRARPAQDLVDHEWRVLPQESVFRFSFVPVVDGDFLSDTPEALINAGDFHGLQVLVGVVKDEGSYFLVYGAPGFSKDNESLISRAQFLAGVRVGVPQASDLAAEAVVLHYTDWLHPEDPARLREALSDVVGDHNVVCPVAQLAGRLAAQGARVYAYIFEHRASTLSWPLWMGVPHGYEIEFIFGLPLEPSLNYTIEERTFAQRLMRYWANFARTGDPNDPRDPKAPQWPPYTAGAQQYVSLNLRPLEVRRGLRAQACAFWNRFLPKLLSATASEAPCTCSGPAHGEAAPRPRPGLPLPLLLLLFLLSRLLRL
Method: Electroporation was performed as described in “Müller, G. et al., (2000) Mol. Cell. Biol. 20: 4708-4723”. Lipolysis was determined as release of glycerol or fluorescent NBD-FA from prelabeled and isoproterenol-stimulated adipocytes as described in “Müller, G. et al., (2003) Biochimie 85: 1245-1256”. Gce1 was detected by photolabeling of solubilized plasma membranes or hc/lcDIGs (10-50 μg protein) with 8-N3—[^32P]cAMP and subsequent phosphorimaging as described in “Müller, G. et al., (1994) Biochemistry 33: 12149-12159”. 5′-Nuc, aP and AChE activities were measured according to “Eliakim, R. et al., (1990) Biochim. Biophys. Acta 1355: 293-302”. Protein was determined using the BCA protein determination kit from Pierce (Rockford, Ill.) and BSA as calibration standard. SDS-PAGE was performed using precast gels (Novex, San Diego, Calif.; 10% Bis-Tris resolving gel, morpholinopropanesulfonic acid-SDS running buffer). Lumiimages were evaluated on a LumiImager using LumiImager software (Roche Diagnostics). Phosphor- and fluorescence images were processed and quantified using the Storm 860 PhosphorImager system (Molecular Dynamics, Gelsenkirchen, Germany). Figures were constructed using the ADOBE PHOTOSHOP software (Adobe Systems, Mountain View, Calif.).
FIG. 3: Selectivity of GPI-2350. […]

CCCCCCCCCCCCP1(=O)O[C@@H]2[C@H](O)[C@@H](O)[C@H](O)[C@@H](O)[C@@H]2O1 (stereo partly drawn) [GPI-2350, myo-inositol-1,2-cyclo-dodecylphosphonic acid]
not significantly affected: effect on PLD (cabbage PLD) | effect on PLA2 [1] | effect on AChE (bovine AChE)
